Measured values as given in the supplement of paper PMC10307832.

Assays:
Test in all cases: relative viability (nuclei count vs DMSO), 5 days (fraction); higher = more cells survive
BEN = test system: BEN
Procedure, shortened: (§1)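 Relative viability is defined as nuclei in treated wells over nuclei in vehicle wells. Duplicate plates were run and medians reported. Lung cancer cell lines in 1536-well plates were dosed by pin tool one day after seeding, with one drug or with a fixed anchor-drug dose plus five library-drug doses (not always all listed) in √10 steps, and nuclei were counted after 5 days.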

ChaGo-K-1 = test system: ChaGo-K-1
Procedure, shortened: as §1

HCC-15 = test system: HCC-15
Procedure, shortened: as §1

LC-2-ad = test system: LC-2-ad
Procedure, shortened: as §1

LCLC-97TM1 = test system: LCLC-97TM1
Procedure, shortened: as §1

LK-2 = test system: LK-2
Procedure, shortened: as §1

LU99A = test system: LU99A
Procedure, shortened: as §1

LXF-289 = test system: LXF-289
Procedure, shortened: as §1

NCI-H1651 = test system: NCI-H1651
Procedure, shortened: as §1

NCI-H1666 = test system: NCI-H1666
Procedure, shortened: as §1

NCI-H1944 = test system: NCI-H1944
Procedure, shortened: as §1

NCI-H2087 = test system: NCI-H2087
Procedure, shortened: as §1

NCI-H2342 = test system: NCI-H2342
Procedure, shortened: as §1

NCI-H322M = test system: NCI-H322M
Procedure, shortened: as §1

NCI-H358 = test system: NCI-H358
Procedure, shortened: as §1

NCI-H596 = test system: NCI-H596
Procedure, shortened: as §1

NCI-H650 = test system: NCI-H650
Procedure, shortened: as §1

NCI-H661 = test system: NCI-H661
Procedure, shortened: as §1

NCI-H838 = test system: NCI-H838
Procedure, shortened: as §1

PC-3 [JPC-3] = test system: PC-3 [JPC-3]
Procedure, shortened: as §1

SK-MES-1 = test system: SK-MES-1
Procedure, shortened: as §1

UMC-11 = test system: UMC-11
Procedure, shortened: as §1

## O=C(O)c1ccc(-c2c[nH]c3ncc(-c4ccccc4)cc23)cc1C1CCCC1 + CCNC(=O)c1noc(-c2cc(C(C)C)c(O)cc2O)c1-c1ccc(CN2CCOCC2)cc1 [Luminespib] (partner 0.01 µM)
BEN; first compound 0.04 µM
  relative viability: 0.569
BEN; first compound 0.1265 µM
  relative viability: 0.32
BEN; first compound 0.4 µM
  relative viability: 0.284
BEN; first compound 1.265 µM
  relative viability: 0.306
ChaGo-K-1; first compound 0.04 µM
  relative viability: 0.712
ChaGo-K-1; first compound 0.1265 µM
  relative viability: 0.651
ChaGo-K-1; first compound 0.4 µM
  relative viability: 0.56
ChaGo-K-1; first compound 1.265 µM
  relative viability: 0.536
HCC-15; first compound 0.04 µM
  relative viability: 0.266
HCC-15; first compound 0.1265 µM
  relative viability: 0.384
HCC-15; first compound 0.4 µM
  relative viability: 0.265
HCC-15; first compound 1.265 µM
  relative viability: 0.192
LC-2-ad; first compound 0.04 µM
  relative viability: 0.874
LC-2-ad; first compound 0.1265 µM
  relative viability: 1.08
LC-2-ad; first compound 0.4 µM
  relative viability: 0.822
LC-2-ad; first compound 1.265 µM
  relative viability: 0.566
LCLC-97TM1; first compound 0.04 µM
  relative viability: 0.858
LCLC-97TM1; first compound 0.1265 µM
  relative viability: 0.82
LCLC-97TM1; first compound 0.4 µM
  relative viability: 0.633
LCLC-97TM1; first compound 1.265 µM
  relative viability: 0.5
LK-2; first compound 0.04 µM
  relative viability: 0.157
LK-2; first compound 0.1265 µM
  relative viability: 0.187
LK-2; first compound 0.4 µM
  relative viability: 0.161
LK-2; first compound 1.265 µM
  relative viability: 0.168
LU99A; first compound 0.04 µM
  relative viability: 0.259
LU99A; first compound 0.1265 µM
  relative viability: 0.254
LU99A; first compound 0.4 µM
  relative viability: 0.244
LU99A; first compound 1.265 µM
  relative viability: 0.273
LXF-289; first compound 0.04 µM
  relative viability: 0.749
LXF-289; first compound 0.1265 µM
  relative viability: 0.614
LXF-289; first compound 0.4 µM
  relative viability: 0.484
LXF-289; first compound 1.265 µM
  relative viability: 0.171
NCI-H1651; first compound 0.04 µM
  relative viability: 0.927
NCI-H1651; first compound 0.1265 µM
  relative viability: 0.863
NCI-H1651; first compound 0.4 µM
  relative viability: 0.6
NCI-H1651; first compound 1.265 µM
  relative viability: 0.638
NCI-H1666; first compound 0.04 µM
  relative viability: 0.976
NCI-H1666; first compound 0.1265 µM
  relative viability: 0.97
NCI-H1666; first compound 0.4 µM
  relative viability: 0.959
NCI-H1666; first compound 1.265 µM
  relative viability: 0.579
NCI-H1944; first compound 0.04 µM
  relative viability: 0.687
NCI-H1944; first compound 0.1265 µM
  relative viability: 0.836
NCI-H1944; first compound 0.4 µM
  relative viability: 0.716
NCI-H1944; first compound 1.265 µM
  relative viability: 0.702
NCI-H2087; first compound 0.04 µM
  relative viability: 0.182
NCI-H2087; first compound 0.1265 µM
  relative viability: 0.192
NCI-H2087; first compound 0.4 µM
  relative viability: 0.221
NCI-H2087; first compound 1.265 µM
  relative viability: 0.164
NCI-H2342; first compound 0.04 µM
  relative viability: 0.773
NCI-H2342; first compound 0.1265 µM
  relative viability: 0.715
NCI-H2342; first compound 0.4 µM
  relative viability: 0.758
NCI-H2342; first compound 1.265 µM
  relative viability: 0.678
NCI-H322M; first compound 0.04 µM
  relative viability: 0.901
NCI-H322M; first compound 0.1265 µM
  relative viability: 0.934
NCI-H322M; first compound 0.4 µM
  relative viability: 0.846
NCI-H322M; first compound 1.265 µM
  relative viability: 0.664
NCI-H358; first compound 0.04 µM
  relative viability: 0.45
NCI-H358; first compound 0.1265 µM
  relative viability: 0.192
NCI-H358; first compound 0.4 µM
  relative viability: 0.249
NCI-H358; first compound 1.265 µM
  relative viability: 0.165
NCI-H596; first compound 0.04 µM
  relative viability: 1
NCI-H596; first compound 0.1265 µM
  relative viability: 1.03
NCI-H596; first compound 0.4 µM
  relative viability: 0.909
NCI-H596; first compound 1.265 µM
  relative viability: 0.973
NCI-H650; first compound 0.04 µM
  relative viability: 0.866
NCI-H650; first compound 0.1265 µM
  relative viability: 0.861
NCI-H650; first compound 0.4 µM
  relative viability: 0.757
NCI-H650; first compound 1.265 µM
  relative viability: 0.293
NCI-H661; first compound 0.04 µM
  relative viability: 0.915
NCI-H661; first compound 0.4 µM
  relative viability: 0.905
NCI-H661; first compound 1.265 µM
  relative viability: 0.897
NCI-H838; first compound 0.04 µM
  relative viability: 0.315
NCI-H838; first compound 0.1265 µM
  relative viability: 0.266
NCI-H838; first compound 0.4 µM
  relative viability: 0.26
NCI-H838; first compound 1.265 µM
  relative viability: 0.287
PC-3 [JPC-3]; first compound 0.04 µM
  relative viability: 0.678
PC-3 [JPC-3]; first compound 0.1265 µM
  relative viability: 0.761
PC-3 [JPC-3]; first compound 0.4 µM
  relative viability: 0.619
PC-3 [JPC-3]; first compound 1.265 µM
  relative viability: 0.569
SK-MES-1; first compound 0.04 µM
  relative viability: 0.81
SK-MES-1; first compound 0.1265 µM
  relative viability: 0.973
SK-MES-1; first compound 0.4 µM
  relative viability: 0.596
SK-MES-1; first compound 1.265 µM
  relative viability: 0.35
UMC-11; first compound 0.04 µM
  relative viability: 0.919
UMC-11; first compound 0.1265 µM
  relative viability: 1.05
UMC-11; first compound 0.4 µM
  relative viability: 0.974
UMC-11; first compound 1.265 µM
  relative viability: 0.738
